# Experimental data from article PMC13128454, “Mutant p53 protein accumulation is selectively targetable by proximity-inducing drugs” (Nature Chemical Biology, 2025).
# Where “and” joins values, the source holds several entries; their conditions need not be identical. Equal entries are not always repeated.
# Tests used:
# Assay type in all cases: cell-based
# [1] = system: Halo–p53-Y220C ΔTAD–mCherry 293T cells; assay: annexin–PI staining; settings: Y220C; for prop_P2: proportion viable
# Procedure: (§1) Cells were plated in six-well plates and treated with varying concentrations of compounds for 1 day. Cells were stained with annexin V–AF488 and PI following the manufacturer’s instructions (Thermo Fisher, V13241) and analyzed by flow cytometry (Beckman CytoFLEX LX), using untreated cells to establish gates.
# [2] = system: parental 293T cells; assay: annexin–PI staining; settings: for P3_avg (P3 = early apoptotic) / P5_avg (P5 = late apoptotic): Cell_Line WT, proportion of cells; for avgprop_P3 / avgprop_P4 / avgprop_P5 / avgprop_P2 / P2_viable / P3_AnnexinPos_PIneg / P4_PIpos_AnnexinNeg / P5_PIpos_Annexinpos / prop_P3 / prop_P4 / prop_P5 / prop_P2: WT; for avgprop_P3: average proportion AnnexinPos PIneg; for avgprop_P4: average proportion PIpos AnnexinNeg; for avgprop_P5: average proportion PIpos Annexinpos; for avgprop_P2: average proportion viable; for P2_viable / P3_AnnexinPos_PIneg / P4_PIpos_AnnexinNeg / P5_PIpos_Annexinpos: event count; for P2_viable / P3_AnnexinPos_PIneg / P4_PIpos_AnnexinNeg / P5_PIpos_Annexinpos / prop_P3 / prop_P4 / prop_P5 / prop_P2: single replicate; for prop_P3: proportion AnnexinPos PIneg; for prop_P4: proportion PIpos AnnexinNeg; for prop_P5: proportion PIpos Annexinpos; for prop_P2: proportion viable
# Procedure: as §1
# [3] = system: p53 luciferase transcriptional reporter in Huh7 cells; assay: p53 luciferase reporter assay; settings: for p53 luciferase reporter signal (normalized), replicates: Huh7
# Procedure: (§2) Huh7 and MFE319 cell lines stably expressing a p53 reporter (Addgene, 90363)[59] were generated. Cells were plated in 384-well plates (1,500 cells per well) and treated with varying concentrations of compound. Then, 16 h after treatment, firefly luciferase substrate was added to the cells and luminescence was monitored using an EnVision 2105 multimode plate reader.
# [4] = system: p53 luciferase transcriptional reporter in MFE319 cells; assay: p53 luciferase reporter assay; settings: for p53 luciferase reporter signal (normalized), replicates: MFE319
# Procedure: as §2
# [5] = Concentration 1.5, event count, single replicate
smiles,measurement,setting,value
"CC[C@@H]1C(=O)N(C)c2cnc(Nc3ccc(C(=O)NCCOCCOCCOCCOCCC(=O)N4CCC(Nc5cccc6c5cc(C#CCNc5ccc(S(C)(=O)=O)cc5OC)n6CC(F)(F)F)CC4)cc3OC)nc2N1C1CCCC1 [p53-01, PMV6-PEG4-BI2536]",prop_P2,"[1]; Concentration 0.75, single replicate",0.8443 and 0.8509 and 0.8477
same,avgprop_P3,"[1]; Concentration 1.5, average proportion AnnexinPos PIneg",0.2575
same,avgprop_P4,"[1]; Concentration 1.5, average proportion PIpos AnnexinNeg",0.06957
same,avgprop_P5,"[1]; Concentration 1.5, average proportion PIpos Annexinpos",0.07698
same,avgprop_P2,"[1]; Concentration 1.5, average proportion viable",0.5959
same,P2_viable,[1]; [5],912 and 887 and 871
same,P3_AnnexinPos_PIneg,[1]; [5],381 and 378 and 395
same,P4_PIpos_AnnexinNeg,[1]; [5],104 and 92 and 116
same,P5_PIpos_Annexinpos,[1]; [5],109 and 111 and 125
same,prop_P3,"[1]; Concentration 1.5, proportion AnnexinPos PIneg, single replicate",0.253 and 0.2575 and 0.2621
same,prop_P4,"[1]; Concentration 1.5, proportion PIpos AnnexinNeg, single replicate",0.06906 and 0.06267 and 0.07697
same,prop_P5,"[1]; Concentration 1.5, proportion PIpos Annexinpos, single replicate",0.07238 and 0.07561 and 0.08295
same,prop_P2,"[1]; Concentration 1.5, single replicate",0.6056 and 0.6042 and 0.578
same,P3_avg (P3 = early apoptotic),[2]; Concentration 0.75,0.05911
same,P5_avg (P5 = late apoptotic),[2]; Concentration 0.75,0.02085
same,P3_avg (P3 = early apoptotic),[2]; Concentration 1.5,0.05067
same,P5_avg (P5 = late apoptotic),[2]; Concentration 1.5,0.02081
same,avgprop_P3,[2]; Concentration 0.75,0.05911
same,avgprop_P4,[2]; Concentration 0.75,0.03071
same,avgprop_P5,[2]; Concentration 0.75,0.02085
same,avgprop_P2,[2]; Concentration 0.75,0.8893
same,P2_viable,[2]; Concentration 0.75,1988 and 1975 and 1922
same,P3_AnnexinPos_PIneg,[2]; Concentration 0.75,134 and 116 and 141
same,P4_PIpos_AnnexinNeg,[2]; Concentration 0.75,58 and 71 and 74
same,P5_PIpos_Annexinpos,[2]; Concentration 0.75,48 and 44 and 46
same,prop_P3,[2]; Concentration 0.75,0.06014 and 0.05258 and 0.06459
same,prop_P4,[2]; Concentration 0.75,0.02603 and 0.03218 and 0.0339
same,prop_P5,[2]; Concentration 0.75,0.02154 and 0.01995 and 0.02107
same,prop_P2,[2]; Concentration 0.75,0.8923 and 0.8953 and 0.8804
same,avgprop_P3,[2]; Concentration 1.5,0.05067
same,avgprop_P4,[2]; Concentration 1.5,0.03243
same,avgprop_P5,[2]; Concentration 1.5,0.02081
same,avgprop_P2,[2]; Concentration 1.5,0.8961
same,P2_viable,[2]; Concentration 1.5,1971 and 1980 and 1990
same,P3_AnnexinPos_PIneg,[2]; Concentration 1.5,112 and 109 and 115
same,P4_PIpos_AnnexinNeg,[2]; Concentration 1.5,75 and 68 and 72
same,P5_PIpos_Annexinpos,[2]; Concentration 1.5,48 and 43 and 47
same,prop_P3,[2]; Concentration 1.5,0.05077 and 0.04955 and 0.05171
same,prop_P4,[2]; Concentration 1.5,0.034 and 0.03091 and 0.03237
same,prop_P5,[2]; Concentration 1.5,0.02176 and 0.01955 and 0.02113
same,prop_P2,[2]; Concentration 1.5,0.8935 and 0.9 and 0.8948
same,induction of p53 reporter,"[3]; 16 h, PMV6 at doses of 1.25–10 μM",no such effect
same,"p53 luciferase reporter signal (normalized), replicates",[3]; log Concentration (pM) 4.59176,0.9363 (2×) and 1.029 and 0.989 (2×) and 0.8835
same,"p53 luciferase reporter signal (normalized), replicates",[3]; log Concentration (pM) 4.89279,1.081 and 0.9758 and 1.0022 and 1.095 and 1.147 and 0.9363
same,"p53 luciferase reporter signal (normalized), replicates",[3]; log Concentration (pM) 5.19382,0.8967 and 0.9231 and 0.9363 and 0.9758 and 1.095 and 1.081
same,"p53 luciferase reporter signal (normalized), replicates",[3]; log Concentration (pM) 5.49485,1.015 and 0.9363 and 1.029 and 1.0022 and 1.108 and 1.095
same,"p53 luciferase reporter signal (normalized), replicates",[3]; log Concentration (pM) 5.79588,1.055 (2×) and 1.095 and 0.9495 and 0.9231 (2×)
same,"p53 luciferase reporter signal (normalized), replicates",[3]; log Concentration (pM) 6.09691,0.9099 and 0.9626 and 0.9231 and 1.0022 and 0.9758 and 0.8835
same,"p53 luciferase reporter signal (normalized), replicates",[3]; log Concentration (pM) 6.39794,0.9495 and 1.029 and 0.9758 and 1.0022 and 1.015 and 1.042
same,"p53 luciferase reporter signal (normalized), replicates",[3]; log Concentration (pM) 6.69897,0.9363 and 0.9231 and 1.042 and 1.095 and 1.068 and 0.8835
same,"p53 luciferase reporter signal (normalized), replicates",[3]; log Concentration (pM) 7,0.9363 and 1.0022 (3×) and 1.015 and 0.9758
same,induction of p53 reporter,[4]; 16 h,no induction of luciferase activity
same,"p53 luciferase reporter signal (normalized), replicates",[4]; log Concentration (pM) 4.59176,0.9836 and 1.068 and 1.04 and 1.096 and 1.012 and 0.9977
same,"p53 luciferase reporter signal (normalized), replicates",[4]; log Concentration (pM) 4.89279,1.026 and 1.11 and 0.9977 and 0.9555 and 1.04 and 1.096
same,"p53 luciferase reporter signal (normalized), replicates",[4]; log Concentration (pM) 5.19382,0.9836 and 1.11 and 1.04 and 1.082 (2×) and 1.096
same,"p53 luciferase reporter signal (normalized), replicates",[4]; log Concentration (pM) 5.49485,0.9696 and 0.9977 and 1.012 (2×) and 1.082 and 1.04
same,"p53 luciferase reporter signal (normalized), replicates",[4]; log Concentration (pM) 5.79588,0.9696 and 1.096 (3×) and 1.068 and 0.9274
same,"p53 luciferase reporter signal (normalized), replicates",[4]; log Concentration (pM) 6.09691,1.152 and 1.068 and 1.012 (2×) and 1.124 and 1.04
same,"p53 luciferase reporter signal (normalized), replicates",[4]; log Concentration (pM) 6.39794,0.9977 (2×) and 1.068 and 1.096 and 1.012 and 0.9836
same,"p53 luciferase reporter signal (normalized), replicates",[4]; log Concentration (pM) 6.69897,1.012 (4×) and 0.9977 and 1.04
same,"p53 luciferase reporter signal (normalized), replicates",[4]; log Concentration (pM) 7,1.054 and 0.9836 (2×) and 1.082 (2×) and 0.8431
